From US11229636B2, “Substituted tetrahydroquinolinone compounds as ROR gamma modulators” (Aurigene Discovery Technologies Limited, priority 2015, dated 2022)
pIC50: −log10 of the molar value.

How the values were obtained:
RORγ LBD = RORγ LBD (Homo sapiens (Human), UniProt P51449); assay: ROR gamma radio-ligand binding assay (3H 25-Hydroxycholesterol competitive displacement, dextran charcoal method); conditions: for RORγ ligand binding assay: % inhibition @1 μM / inhibition at 1 µM: 1 μM compound; for RORγ ligand binding assay: % inhibition @ 10 μM / inhibition at 10 µM: 10 μM compound; for pIC50: in range
Protocol: Gene corresponding to the ligand binding domain of RORγ (247-497 amino acids) was sub-cloned into pGEX4T1 vector. Transformants of E. coli BL21 (DE3) containing pGEX4T1-RORγ (247-497) were grown to an OD of 0.8 at 37° C. and induced with 0.5 mM isopropyl-β-D-thiogalactopyranoside (IPTG) for 18 hours at 18° C. Cells were harvested and resuspended in 20 mM Tris-HCl (pH 8.5), 0.3 M NaCl, 10% Glycerol, 2 mM β-Me (β-Mercaptoethanol), 2 mM CHAPS, protease inhibitors, 0.6 mM PMSF and Lysozyme. Supernatant of lysate was passed through glutathione sepharose 4B affinity beads (GE health care) pre-equilibrated with 20 mM Tris-HCl (pH 8.5), 0.3 M NaCl, 10% Glycerol, 2 mM β-Me. RORγ was eluted using a gradient of reduced glutathione (3-20 mM). Fractions containing RORγ protein were pooled, concentrated and passed through Superdex 75 gel filtration (GE health care) column equilibrated with 20 mM Na-phosphate pH 8.0, 0.2 M NaCl, 10% glycerol. The peak fractions from gel filtration column were pooled and stored at −80° C. for Binding assay.
ROR gamma radioligand binding was performed using ^3H 25-Hydroxycholesterol in a competitive displacement assay using dextran charcoal method. Using 5 nM ^3H 25-Hydroxycholesterol with 300 ng RORγ LBD (in house expressed in E. coli) along with the compound were incubated in the binding buffer (50 mM HEPES, pH 7.5, 150 mM NaCl, 0.01% BSA and 5 mM MgCl2) for 30 min at room temperature. Then dextran-charcoal mixture (0.5% charcoal: 0.05% dextran) was used for separation and the supernatant was read on the Perkin Elmer Trilux Microbeta counter. Dose response curves were generated for 10 compound concentrations using GraphPad Prism software Version 5 (San Diego, Calif., USA) using non-linear regression curve fit for sigmoidal dose response (variable slope).

[1] = target: ROR gamma ligand binding domain (Homo sapiens (Human), UniProt P51449); assay: ROR gamma luciferase reporter assay (GAL4-ROR gamma LBD, HEK293 cells); assay type: cell-based; conditions: 48 hours treatment, read-out: RORγ luciferase Reporter assay: IC50 (nM) (in range)
Protocol: The Ligand Binding Domain (LBD) of ROR gamma was cloned into pFN26A (BIND) hRluc-neo Flexi vector (Promega) which expresses a fusion protein comprised of a DNA binding domain of the yeast GAL4 gene, a linker segment and ROR gamma ligand binding domain. For the reporter assay 0.02×10^6 HEK293 cells were seeded per well in a 96 well plate in complete media and incubated overnight in an incubator with 5% CO2 at 37° C. before transfection. Cells were then co-transfected with pFN26A hRluc-neo Flexi vector containing the LBD of ROR gamma and pGL4.35 [luc2P/9XGAL4 UAS/Hygro] Vector (Promega) in low serum media. Post transfection and recovery, cells were treated with the test compounds for 48 hours. The assay was terminated using the Bright-Glo Luciferase assay system from Promega and the Luminescence was measured using a luminescence reader. The luminescence values were used to calculate the potency of the compounds.

Chain of RORγ LBD (P51449 268-518): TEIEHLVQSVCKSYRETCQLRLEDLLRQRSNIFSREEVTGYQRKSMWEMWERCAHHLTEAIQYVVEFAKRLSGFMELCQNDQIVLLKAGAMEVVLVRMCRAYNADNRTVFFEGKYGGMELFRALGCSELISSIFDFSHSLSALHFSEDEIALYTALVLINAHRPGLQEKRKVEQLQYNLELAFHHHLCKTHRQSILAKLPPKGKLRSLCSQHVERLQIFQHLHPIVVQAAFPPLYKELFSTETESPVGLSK
Chain of ROR gamma ligand binding domain (P51449 269-508): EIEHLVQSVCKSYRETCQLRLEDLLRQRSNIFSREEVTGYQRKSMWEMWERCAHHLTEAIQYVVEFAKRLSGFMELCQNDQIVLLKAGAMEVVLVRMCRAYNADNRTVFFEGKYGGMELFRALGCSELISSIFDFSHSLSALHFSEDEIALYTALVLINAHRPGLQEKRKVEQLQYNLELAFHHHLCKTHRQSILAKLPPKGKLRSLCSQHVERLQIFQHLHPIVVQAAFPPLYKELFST

Row | SMILES | RORγ ligand binding assay: % inhibition @1 μM (RORγ LBD) | RORγ ligand binding assay: % inhibition @ 10 μM (RORγ LBD) | pIC50 (RORγ LBD) | IC50 [1] | inhibition at 1 µM (RORγ LBD) | inhibition at 10 µM (RORγ LBD)
1 | CCS(=O)(=O)c1ccc(CC(=O)Nc2ccc3c(n2)CCC(C)(c2nccn4cc(C)nc24)C3=O)cc1 (single isomer, unassigned) [Compound-105, 2-(4-(ethylsulfonyl)phenyl)-N-(6-methyl-6-(2-methylimidazo[1,2-a]pyrazin-8-yl)-5-oxo-5,6,7,8-tetrahydroquinolin-2-yl)acetamide] | 100% | 97% | > 6.82 | < 100 nM |  | 
2 | CCS(=O)(=O)c1ccc(CC(=O)Nc2ccc3c(n2)CCC(C)(c2cc(C)nc(C)n2)C3=O)cc1 (single isomer, unassigned) [compound 103, N-(6-(2,6-dimethylpyrimidin-4-yl)-6-methyl-5-oxo-5,6,7,8-tetrahydroquinolin-2-yl)-2-(4-(ethylsulfonyl)phenyl)acetamide] | 26% | 0% |  | > 500 nM |  | 
3 | CCS(=O)(=O)c1ccc(CC(=O)Nc2ccc3c(n2)CCC(C)(c2cc(C)nc(C)n2)C3=O)cc1 (single isomer, unassigned) [compound 104, N-(6-(2,6-dimethylpyrimidin-4-yl)-6-methyl-5-oxo-5,6,7,8-tetrahydroquinolin-2-yl)-2-(4-(ethylsulfonyl)phenyl)acetamide] | 94% | 88% | > 6.82 | 100 to 500 nM |  | 
4 | CCS(=O)(=O)c1ccc(CC(=O)Nc2ccc3c(n2)CCC(C)(c2nccn4cc(C)nc24)C3=O)cc1 (single isomer, unassigned) [compound 106, 2-(4-(ethylsulfonyl)phenyl)-N-(6-methyl-6-(2-methylimidazo[1,2-a]pyrazin-8-yl)-5-oxo-5,6,7,8-tetrahydroquinolin-2-yl)acetamide] | 70% | 1% |  | > 500 nM |  | 
5 | CCS(=O)(=O)c1ccc(CC(=O)Nc2cc(C)c3c(n2)CCC(C)(c2cc(C)nc(C)n2)C3=O)cc1 (single isomer, unassigned) [compound 107, N-(6-(2,6-dimethylpyrimidin-4-yl)-4,6-dimethyl-5-oxo-5,6,7,8-tetrahydroquinolin-2-yl)-2-(4-(ethylsulfonyl)phenyl)acetamide] |  | 90% | > 6.82 | 100 to 500 nM | 91% | 
6 | CCS(=O)(=O)c1ccc(CC(=O)Nc2cc(C)c3c(n2)CCC(C)(c2cc(C)nc(C)n2)C3=O)cc1 (single isomer, unassigned) [compound 108, N-(6-(2,6-dimethylpyrimidin-4-yl)-4,6-dimethyl-5-oxo-5,6,7,8-tetrahydroquinolin-2-yl)-2-(4-(ethylsulfonyl)phenyl)acetamide] | 78% | 28% | < 6.52 | > 500 nM |  | 
7 | CCS(=O)(=O)c1ccc(CC(=O)Nc2cc(C)c3c(n2)CCC(C)(c2ccc(OC)nn2)C3=O)cc1 (single isomer, unassigned) [compound 109, 2-(4-(ethylsulfonyl)phenyl)-N-(6-(6-methoxypyridazin-3-yl)-4,6-dimethyl-5-oxo-5,6,7,8-tetrahydroquinolin-2-yl)acetamide] |  | 36% |  | > 500 nM | 91% | 
8 | CCS(=O)(=O)c1ccc(CC(=O)Nc2cc(C)c3c(n2)CCC(C)(c2ccc(OC)nn2)C3=O)cc1 (single isomer, unassigned) [compound 110, 2-(4-(ethylsulfonyl)phenyl)-N-(6-(6-methoxypyridazin-3-yl)-4,6-dimethyl-5-oxo-5,6,7,8-tetrahydroquinolin-2-yl)acetamide] | 100% | 81% |  | < 100 nM |  | 
9 | CCS(=O)(=O)c1ccc(CC(=O)Nc2ccc3c(n2)CCC(C)(c2ncc(OC)cn2)C3=O)cc1 (single isomer, unassigned) [compound 111, 2-(4-(ethylsulfonyl)phenyl)-N-(6-(5-methoxypyrimidin-2-yl)-6-methyl-5-oxo-5,6,7,8-tetrahydroquinolin-2-yl)acetamide] | 62% | 19% | < 6.52 | > 500 nM |  | 
10 | CCS(=O)(=O)c1ccc(CC(=O)Nc2ccc3c(n2)CCC(C)(c2ncc(OC)cn2)C3=O)cc1 (single isomer, unassigned) [compound 112, 2-(4-(ethylsulfonyl)phenyl)-N-(6-(5-methoxypyrimidin-2-yl)-6-methyl-5-oxo-5,6,7,8-tetrahydroquinolin-2-yl)acetamide] | 100% | 73% | > 6.82 | 100 to 500 nM |  | 
11 | CCS(=O)(=O)c1ccc(CC(=O)Nc2ccc3c(n2)CCC(C)(c2ccc(OC)nc2)C3=O)cc1 (stereo not shown) [Compound 2, 2-(4-(ethylsulfonyl)phenyl)-N-(6-(6-methoxypyridin-3-yl)-6-methyl-5-oxo-5,6,7,8-tetrahydroquinolin-2-yl)acetamide] |  |  | > 6.82 | 100 to 500 nM | 84% | 89%
12 | CCS(=O)(=O)c1ccc(CC(=O)Nc2ccc3c(n2)CCC(C)(c2nccn4ccnc24)C3=O)cc1 (stereo not shown) [Compound 6, 2-(4-(ethylsulfonyl)phenyl)-N-(6-(imidazo[1,2-a]pyrazin-8-yl)-6-methyl-5-oxo-5,6,7,8-tetrahydroquinolin-2-yl)acetamide] |  |  | 6.52 to 6.82 | 100 to 500 nM | 72% | 96%
13 | CCS(=O)(=O)c1ccc(CC(=O)Nc2cc3c(cn2)C(=O)C(C)(c2cc(C)nc(C)n2)CC3)cc1 (stereo not shown) [Compound 83, N-(7-(2,6-dimethylpyrimidin-4-yl)-7-methyl-8-oxo-5,6,7,8-tetrahydroisoquinolin-3-yl)-2-(4-(ethylsulfonyl)phenyl)acetamide] |  |  |  | 100 to 500 nM |  | 
14 | CCS(=O)(=O)c1ccc(CC(=O)Nc2ccc3c(n2)CCC(C)(c2ccc(Cl)nn2)C3=O)cc1 (stereo not shown) [Compound 93, N-(6-(6-chloropyridazin-3-yl)-6-methyl-5-oxo-5,6,7,8-tetrahydroquinolin-2-yl)-2-(4-(ethylsulfonyl)phenyl)acetamide] |  |  |  | > 500 nM |  | 
15 | CCS(=O)(=O)c1ccc(CC(=O)Nc2cc(C)c3c(n2)CCC(C)(c2ccc(OC)[n+]([O-])n2)C3=O)cc1 (stereo not shown) [Compound 94, 3-(2-(2-(4-(ethylsulfonyl)phenyl)acetamido)-4,6-dimethyl-5-oxo-5,6,7,8-tetrahydroquinolin-6-yl)-6-methoxypyridazine 1-oxide] |  |  |  | > 500 nM |  | 
16 | CCS(=O)(=O)c1ccc(CC(=O)Nc2cc(C)c3c(n2)CCC(C)(c2nnc(OC)cc2C)C3=O)cc1 (stereo not shown) [Compound 95, 2-(4-(ethylsulfonyl)phenyl)-N-(6-(6-methoxy-4-methylpyridazin-3-yl)-4,6-dimethyl-5-oxo-5,6,7,8-tetrahydroquinolin-2-yl)acetamide] |  |  |  | > 500 nM |  | 
17 | CCS(=O)(=O)c1ccc(CC(=O)Nc2cc(C)c3c(n2)CCC(C)(c2cc(C)c(OC)nn2)C3=O)cc1 (stereo not shown) [Compound 96, 2-(4-(ethylsulfonyl)phenyl)-N-(6-(6-methoxy-5-methylpyridazin-3-yl)-4,6-dimethyl-5-oxo-5,6,7,8-tetrahydroquinolin-2-yl)acetamide] |  |  |  | 100 to 500 nM |  | 
18 | CCS(=O)(=O)c1ccc(CC(=O)Nc2ccc3c(n2)CCC(C)(c2nccn4c(F)cnc24)C3=O)cc1 (stereo not shown) [Compound 97, 2-(4-(ethylsulfonyl)phenyl)-N-(6-(3-fluoroimidazo[1,2-a]pyrazin-8-yl)-6-methyl-5-oxo-5,6,7,8-tetrahydroquinolin-2-yl)acetamide] |  |  |  | > 500 nM |  | 
19 | CCS(=O)(=O)c1ccc(CC(=O)Nc2cc(C)c3c(n2)CCC(C)(c2ccc(N(C)C)nn2)C3=O)cc1 (stereo not shown) [Compound 98, N-(6-(6-(dimethylamino)pyridazin-3-yl)-4,6-dimethyl-5-oxo-5,6,7,8-tetrahydroquinolin-2-yl)-2-(4-(ethylsulfonyl)phenyl)acetamide] |  |  |  | 100 to 500 nM |  | 
20 | CCS(=O)(=O)c1ccc(CNC(=O)c2cc3c(cn2)C(=O)C(C)(c2cc(C)nc(C)n2)CC3)cc1 (stereo not shown) [Compound-134, 7-(2,6-dimethylpyrimidin-4-yl)-N-(4-(ethylsulfonyl)benzyl)-7-methyl-8-oxo-5,6,7,8-tetrahydroisoquinoline-3-carboxamide] |  |  |  | 100 to 500 nM |  | 
